Data on one compound can be found in patent US20120213714A1, “Method and compositions as an adjunct for the prevention and treatment of periodontal disease” (priority 2011, published 2012).

Converted amounts (≈) assume the structure as drawn.

The assay has as its system Porphyromonas gingivalis. Briefly: Porphyromonas gingivalis overnight culture, colony count on blood agar vs control. It counts as cell-based. As for the experimental part: After the overnight culture, the medium was diluted 1:10000 times, 5 μl of the diluted culture was applied to blood agar plate and cultured overnight. Calculated the number of colonies on the plates and compared with the control group to obtain the percentage of inhibition.

Take `CCCCC/C=C\C/C=C\C/C=C\CCCCC(=O)O` [omega-6 fatty acids (GLA), γ-linolenic acid]: the IC50 (Porphyromonas gingivalis, overnight culture at 37° C, colonies counted vs control, read-out: IC50 / final concentration inhibiting 50% of Porphyromonas gingivalis growth) is approximately 5 µg/mL (≈ 18 µM). The “inhibition of growth of Porphyromonas gingivalis” value (final concentration of 1 μg/ml) is “significantly inhibit the growth”.
